Test results as given in patent US6468472B1 (priority 1999, dated 2002).
Where two headings read alike, the source gives them in different places.

Assays:
Bacillus subtilis spores = settings: cited from earlier work
[1] = test system: pathogenic microorganisms; settings: cited from earlier work; for minimum effective concentration for high-level disinfection: 20° C.
[2] = second-order dependence on peracetic acid concentration (Yuan et al.); cited from earlier work
[3] = Peracetic acid stability versus pH; format: physicochemical; settings: acetic acid buffer at pH 5.0-5.8

Structure (SMILES): OO [Formulation H2O2, hydrogen peroxide]
- time for killing all Bacillus subtilis spores (Bacillus subtilis spores; pH 5): 3 h
- time for killing all Bacillus subtilis spores (Bacillus subtilis spores; pH 8): 6 h
- minimum effective concentration for high-level disinfection ([1]; 30 min, Sporox): 6.0%

Structure (SMILES): CC(=O)OO [PAA, peracetic acid]
- time for killing all Bacillus subtilis spores (Bacillus subtilis spores; PAA at 0.013 m/l (0.10% w/v), pH 5.0): 1 h
- time for killing all Bacillus subtilis spores (Bacillus subtilis spores; PAA at 0.013 m/l (0.10% w/v), pH 8.0): > 6 h
- reduction in sporicidal rate of kill activity between pH 8.0 and pH 5.0 (Bacillus subtilis spores; PAA at 0.13-0.38 m/l (0.99-2.89% w/v)): did not show a reduction
- decrease of sporicidal activity between pH 2.6 and pH 8.0 (factor) (Bacillus subtilis spores; work of Baldry): 3-10 times
- increase in sporicidal kill time at pH 8.0 versus 5.0 (Bacillus subtilis spores; work of Baldry): 6 times
- increase in kill time at pH 2.6 versus pH 5.0 (Bacillus subtilis spores; work of Baldry, possible factor): 2 times
- minimum effective concentration for high-level disinfection ([1]; 25 min, Peract): 0.05%
- minimum effective concentration for high level disinfection in a short time interval or sterilization over a longer soak period [1]: 500 ppm
- pH of maximum decomposition rate [2]: 8.2
- amount which can be stably maintained [3]: less than 700 ppm
